Measured values as given in patent publication US4950686A, “Anti-mycoplasma agent” (Shionogi & Co., Ltd., priority 1986, dated 1990).
In brackets after ≈: the same amount, converted by molar mass.

Tests used:
[1] = system: Mycoplasma gallisepticum T-7-T (wild strain, tylosin-resistant); assay: Mycoplasma gallisepticum air-sac infection method in chicken, strain T-7-T;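 for Index of Isolation: index = (P×1 + Q×2 + R×3)/S with range 0 to 6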; format: in vivo, Mycoplasma gallisepticum; SPF chicken (white leghorn); conditions: 100 mg/kg × once oral, 10 mg/ml sol. b; for Change of air-sac, left: + (chickens) / Change of air-sac, left: ++ (chickens) / Change of air-sac, left: +++ (chickens) / Change of air-sac, left: - (chickens) / Change of air-sac, right: + (chickens) / Change of air-sac, right: ++ (chickens) / Change of air-sac, right: +++ (chickens) / Change of air-sac, right: - (chickens) / Isolation, L (left air-sac) / Isolation, R (right air-sac) / Isolation, T (trachea) / Mycoplasma Isolated Chickens: inoculum 10^2; for Index of Isolation: inoculum 10^2, range 0-6.0; for Index of Disease: inoculum 10^2, range 0-9.0
Method: (§1) (2) Test of Effectiveness Mycoplasma gallisepticum air-sac infection method
(§2) T-7-T (wild strain, tylosin-resistant)
(§3) Inoculation: To the right air-sac of 9 days old SPF chicken (a white leghorn) which has abstained from water and feed one day before is inoculated 0.20-0.25 ml/chicken of fresh mycoplasma culture incubated for 24-48 hr and diluted with broth (usually 100 times). The concentration in Table 2 is shown in a unit of mg/ml.
(§4) Medium: Chick PPLO broth supplemented with 15% equine serum (Eiken Kagaku Co., Ltd.)
(§5) Administration: A compound of this invention dissolved or suspended in the following solution is orally and forcibly administered once by a cannula immediately after the infection.
(§6) Anatomization and Isolation of Microorganism: The chickens are anatomized 5 days after the infection, and the right and left air sacs are investigated whether they are attacked with a disease or not. The change caused by the disease is represented in four degrees; -: no change, +: slight, ++: medium and +++: serious. Microorganism is isolated from the right and left air-sacs and the trachea by using a sterilized applicator.
(§7) Judgement: Judgement is done through an index of an air-sac disease and an index of a microorganism-isolation.
(§8) Index of an air-sac-disease: First, indexes in the right and left air-sacs are separately calculated according to the following formula;
(§9) {degree of disease (0-3)×chickens}/anatomized chickens
(§10) and the index is calculated by the following formula;
(§11) (index of right air-sac)×1+(index of left air-sac)×2
(§12) Index of a microorganism isolation:
(§13) P: chickens from the right air-sac of which microorganism is isolated,
(§14) Q: chickens from the trachea of which microorganism is isolated,
(§15) R: chickens from the left air-sac of which microorganism is isolated, and
(§16) S: chickens investigated.

[2] = system: Mycoplasma gallisepticum T-7-T (wild strain, tylosin-resistant); assay: Anti-mycoplasma activity in vitro (MIC, broth dilution), strain T-7-T; format: cell-based; conditions: Mycoplasmoides gallisepticum, 168 h, Mg T-7-T, 37° C., 7 days; read-out: MIC
Method: (§17) (1) Anti-mycoplasma activity test in vitro
(§18) MIC values of each of Tropolones were measured on the following strains according to the following method.
(§19) (a) Mycoplasma gallisepticum
as §2
(§20) Medium: Chick PPLO broth supplemented with 20% equine serum (Eiken Kagaku Co., Ltd.)
(§21) Method: Broth dilution method
(§22) Inoculum: Culture incubated at 37° C. for 24-48 hr which is diluted with broth to 10^6 CCU/ml immediately before the use.
(§23) To 1.6 ml of the broth is added 0.2 ml of an agent which has been subjected to 2-fold dilution and then added 0.2 ml of inoculum, which is incubated at 37° C. for 7 days.

[3] = system: Mycoplasma gallisepticum MR-1 (wild strain, tylosin-resistant); assay: Anti-mycoplasma activity in vitro (MIC, broth dilution), strain MR-1; format: cell-based; conditions: Mycoplasmoides gallisepticum, 168 h, Mg MR-1, 37° C., 7 days; read-out: MIC
Method: as §17, §18, §19
MR-1 (wild strain, tylosin-resistant)
as §20, §21, §22, §23

[4] = system: Mycoplasma gallisepticum S6 (standard strain); assay: Anti-mycoplasma activity in vitro (MIC, broth dilution), strain S6; format: cell-based; conditions: Mycoplasmoides gallisepticum, 168 h, Mg S6, 37° C., 7 days; read-out: MIC
Method: as §17, §18, §19, §20, §21, §22, §23

[5] = system: Mycoplasma hyopneumoniae ST-11 (standard strain); assay: Anti-mycoplasma activity in vitro (MIC, broth dilution), strain ST-11; format: cell-based; conditions: Mesomycoplasma hyopneumoniae, Mh ST-11; read-out: MIC
Method: as §17, §18
(b) Mycoplasma hyopneumoniae
Strain: ST-11 (standard strain)
Medium: 850 ml of Hanks' solution supplemented with 0.5% lactoalbumin, 50 ml of 25% yeast, 100 ml of equine serum and 4-6 ml of 0.5% phenol red (pH 7.4-7.6)
as §21
Inoculum: Culture which is incubated for 3-4 days and diluted 10 times with the broth if color of the broth becomes yellow then. If it needs over 4 days until color of the broth becomes yellow, it is further subcultured. This is diluted 10 times with the broth to give inoculum.
Assay is done in the same manner as in the above (a).

[6] = system: Mycoplasma gallisepticum S6 (standard strain); assay: Mycoplasma gallisepticum air-sac infection method in chicken, strain S6; format: in vivo, Mycoplasma gallisepticum; SPF chicken (white leghorn); conditions: 100 mg/kg × once oral, 10 mg/ml sol. b; for Change of air-sac, left: + (chickens) / Change of air-sac, left: ++ (chickens) / Change of air-sac, left: +++ (chickens) / Change of air-sac, left: - (chickens) / Change of air-sac, right: + (chickens) / Change of air-sac, right: ++ (chickens) / Change of air-sac, right: +++ (chickens) / Change of air-sac, right: - (chickens) / Isolation, L (left air-sac) / Isolation, R (right air-sac) / Isolation, T (trachea) / Mycoplasma Isolated Chickens: inoculum 1.2 × 10^6; for Index of Isolation: inoculum 1.2 × 10^6, range 0-6.0; for Index of Disease: inoculum 1.2 × 10^6, range 0-9.0
Method: as §1, §3, §4, §5, §6, §7, §8, §9, §10, §11, §12, §13, §14, §15, §16

| SMILES | Change of air-sac, left: + (chickens) [1] | Change of air-sac, left: ++ (chickens) [1] | Change of air-sac, left: +++ (chickens) [1] | Change of air-sac, left: - (chickens) [1] | Change of air-sac, right: + (chickens) [1] | Change of air-sac, right: ++ (chickens) [1] | Change of air-sac, right: +++ (chickens) [1] | Change of air-sac, right: - (chickens) [1] | Isolation, L (left air-sac) [1] | Isolation, R (right air-sac) [1] | Isolation, T (trachea) [1] | Mycoplasma Isolated Chickens [1] | Index of Isolation [1] | Index of Disease [1] | MIC [2] | MIC [3] | MIC [4] | MIC [5] | Change of air-sac, left: + (chickens) [6] | Change of air-sac, left: ++ (chickens) [6] | also measured |
| --- | --- | --- | --- | --- | --- | --- | --- | --- | --- | --- | --- | --- | --- | --- | --- | --- | --- | --- | --- | --- | --- |
| O=c1c(O)ccccc1Br [Compound 24, 7-Bromotropolone] | 0 | 0 | 0 | 8 | 0 | 0 | 0 | 8 | 3 | 3 | 5 | 5 | 2.80 | 0 | 0.78 µg/mL (≈ 3.88 µM) | 1.56 µg/mL (≈ 7.76 µM) | 0.39 µg/mL (≈ 1.94 µM) | 0.2 µg/mL (≈ 0.995 µM) | 0 | 0 | Change of air-sac, left: +++ (chickens) [6]: 0; Change of air-sac, left: - (chickens) [6]: 8; Change of air-sac, right: + (chickens) [6]: 0; Change of air-sac, right: ++ (chickens) [6]: 0; Change of air-sac, right: +++ (chickens) [6]: 0; Change of air-sac, right: - (chickens) [6]: 8; Isolation, L (left air-sac) [6]: 4; Isolation, R (right air-sac) [6]: 1; Isolation, T (trachea) [6]: 7; Mycoplasma Isolated Chickens [6]: 7; Index of Isolation [6]: 2.70; Index of Disease [6]: 0 |
| O=C1OC(Oc2cccccc2=O)c2ccccc21 (stereo not drawn) [Compound 23, O-(1,3-Dihydro-3-oxo-1-isobenzofuranyl)tropolone] | 0 | 0 | 0 | 8 | 0 | 0 | 0 | 8 | 6 | 5 | 6 | 6 | 4.20 | 0 | 0.78 µg/mL (≈ 3.07 µM) | 0.78 µg/mL (≈ 3.07 µM) | 0.39 µg/mL (≈ 1.53 µM) | 0.39 µg/mL (≈ 1.53 µM) | 0 | 0 | Change of air-sac, left: +++ (chickens) [6]: 0; Change of air-sac, left: - (chickens) [6]: 8; Change of air-sac, right: + (chickens) [6]: 0; Change of air-sac, right: ++ (chickens) [6]: 0; Change of air-sac, right: +++ (chickens) [6]: 0; Change of air-sac, right: - (chickens) [6]: 8; Isolation, L (left air-sac) [6]: 1; Isolation, R (right air-sac) [6]: 1; Isolation, T (trachea) [6]: 4; Mycoplasma Isolated Chickens [6]: 4; Index of Isolation [6]: 1.90; Index of Disease [6]: 0 |
| CC(C)(C)C(=O)OCOc1cccccc1=O [Compound 19, O-(pivaloyloxymethyl)tropolone] | 0 | 0 | 0 | 8 | 0 | 0 | 0 | 8 | 2 | 1 | 5 | 5 | 2.00 | 0 | 0.78 µg/mL (≈ 3.3 µM) | 1.56 µg/mL (≈ 6.6 µM) | 0.39 µg/mL (≈ 1.65 µM) | 0.1 µg/mL (≈ 0.423 µM) | 0 | 0 | Change of air-sac, left: +++ (chickens) [6]: 0; Change of air-sac, left: - (chickens) [6]: 8; Change of air-sac, right: + (chickens) [6]: 0; Change of air-sac, right: ++ (chickens) [6]: 0; Change of air-sac, right: +++ (chickens) [6]: 0; Change of air-sac, right: - (chickens) [6]: 8; Isolation, L (left air-sac) [6]: 1; Isolation, R (right air-sac) [6]: 1; Isolation, T (trachea) [6]: 2; Mycoplasma Isolated Chickens [6]: 2; Index of Isolation [6]: 1.01; Index of Disease [6]: 0 |
